Reference: BindingDB's records for patent US20250313563 (The Broad Institute, 2025)
“And” between values parts separate entries of the source, which are not always exact repeats. Equal values may be shown once.

How the values were obtained:
[1] = target: Glycogen synthase kinase-3 alpha (Homo sapiens, UniProt P49840); test: TR-FRET Assay
In short: (§1)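 Compound was preincubated 30 min in assay buffer before the kinase reaction, which was quenched with EDTA. Phosphorylation was detected by TR-FRET after adding a solution of 40 nM streptavidin-d2 and 2 nM Tb-labelled anti-pSer641 antibody.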

[2] = target: Glycogen synthase kinase-3 beta (Homo sapiens, UniProt P49841); test: TR-FRET Assay
Glycogen synthase kinase-3 beta, sequence (P49841 whole entry): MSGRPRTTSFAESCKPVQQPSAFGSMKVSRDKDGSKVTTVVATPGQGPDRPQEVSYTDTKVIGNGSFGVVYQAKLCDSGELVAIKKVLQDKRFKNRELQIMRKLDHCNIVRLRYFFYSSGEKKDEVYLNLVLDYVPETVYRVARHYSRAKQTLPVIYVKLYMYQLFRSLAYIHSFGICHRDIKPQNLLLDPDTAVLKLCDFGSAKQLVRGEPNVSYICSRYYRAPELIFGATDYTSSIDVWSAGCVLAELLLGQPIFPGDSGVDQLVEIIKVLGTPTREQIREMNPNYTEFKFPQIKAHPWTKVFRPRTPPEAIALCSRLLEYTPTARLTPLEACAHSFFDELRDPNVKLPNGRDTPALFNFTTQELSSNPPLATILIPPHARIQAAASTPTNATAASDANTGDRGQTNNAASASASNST
In short: as §1

Glycogen synthase kinase-3 alpha, sequence (P49840 whole entry): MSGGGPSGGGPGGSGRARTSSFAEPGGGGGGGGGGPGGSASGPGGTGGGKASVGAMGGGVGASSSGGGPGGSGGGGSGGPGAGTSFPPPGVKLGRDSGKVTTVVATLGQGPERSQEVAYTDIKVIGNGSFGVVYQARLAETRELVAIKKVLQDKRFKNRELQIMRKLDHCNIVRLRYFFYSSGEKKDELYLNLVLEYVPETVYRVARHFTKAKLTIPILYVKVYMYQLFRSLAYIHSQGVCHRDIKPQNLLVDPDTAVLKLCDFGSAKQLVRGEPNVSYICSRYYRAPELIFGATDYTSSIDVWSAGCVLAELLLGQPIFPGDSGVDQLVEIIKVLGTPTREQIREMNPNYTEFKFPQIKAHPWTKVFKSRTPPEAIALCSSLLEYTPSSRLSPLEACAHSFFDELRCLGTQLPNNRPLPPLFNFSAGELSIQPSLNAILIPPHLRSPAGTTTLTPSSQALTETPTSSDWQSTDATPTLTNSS

IC50 [1] | IC50 [2] | Compound
< 0.1 µM | < 0.1 µM | CCC1(c2cccc(N(c3cccnc3)C(C)C)c2)C2=CN=NC2NC2=C1C(=O)CC(C)(C)C2 (configuration not stated) [US20250313563, Compound 885344]
0.1 to 1 µM | 1 to 5 µM | CCC1(c2cccc(N(C)c3cccnc3C)c2)C2=CN=NC2NC2=C1C(=O)CC(C)(C)C2 (configuration not stated) [US20250313563, Compound 885355]
0.1 to 1 µM | 1 to 5 µM | CCN(c1cccc(C2(CC)C3=CN=NC3NC3=C2C(=O)CC(C)(C)C3)c1)c1cccnc1C (configuration not stated) [US20250313563, Compound 885367]
0.1 to 1 µM | 1 to 5 µM | CCC1(c2cccc(N(C)c3cnn(C)c3)c2)C2=CN=NC2NC2=C1C(=O)CC(C)(C)C2 (configuration not stated) [US20250313563, Compound 885382]
0.1 to 1 µM | 1 to 5 µM | CCC1(c2cccc(N(C)c3nccn3C)c2)C2=CN=NC2NC2=C1C(=O)CC(C)(C)C2 (configuration not stated) [US20250313563, Compound 885402]
< 0.1 µM | < 0.1 µM | CC[C@]1(c2cccc([C@H]3CCOC3)c2)C2=CN=NC2NC2=C1C(=O)CC(C)(C)C2 (some centres not stated) [US20250313563, Compound 889556]
< 0.1 µM | < 0.1 µM | CC[C@]1(c2cccc([C@@H]3CCOC3)c2)C2=CN=NC2NC2=C1C(=O)CC(C)(C)C2 (some centres not stated) [US20250313563, Compound 889557]
< 0.1 µM | 0.1 to 1 µM | CC[C@@]1(c2cccc([C@H]3CCOC3)c2)C2=CN=NC2NC2=C1C(=O)CC(C)(C)C2 (some centres not stated) [US20250313563, Compound 889558]
0.1 to 1 µM | 1 to 5 µM | CC[C@@]1(c2cccc([C@@H]3CCOC3)c2)C2=CN=NC2NC2=C1C(=O)CC(C)(C)C2 (some centres not stated) [US20250313563, Compound 889565]
< 0.1 µM | 0.1 to 1 µM | CC1(C)CC(=O)C2=C(C1)NC1=C(CN=N1)C21CSC1 [US20250313563, Compound 889567]
0.1 to 1 µM | 1 to 5 µM | CC1(C)CC(=O)C2=C(C1)NC1=C(CN=N1)C21CN(C(=O)OCc2ccccc2)C1 [US20250313563, Compound 889568]
0.1 to 1 µM | 0.1 to 1 µM | CC1(C)CC(=O)C2=C(C1)NC1=C(CN=N1)C21COC1 [US20250313563, Compound 889569]
> 5 µM | > 5 µM | CC1(C)CC(=O)C2=C(C1)NC1=C(CN=N1)C21CCCNCC1 (configuration not stated) [US20250313563, Compound 889571]
0.1 to 1 µM | 0.1 to 1 µM | O=C1CC(C(F)(F)F)CC2=C1C1(CCOCC1)C1=C(N=NC1)N2 (configuration not stated) [US20250313563, Compound 889572]
< 0.1 µM | 0.1 to 1 µM | O=C1CC2(CCOC2)CC2=C1C1(CCOCC1)C1=C(N=NC1)N2 (configuration not stated) [US20250313563, Compound 889573]
0.1 to 1 µM | 0.1 to 1 µM | CC1(C)CC(=O)C2=C(C1)NC1N=NC=C1C21CCCN(CC(F)F)CC1 (configuration not stated) [US20250313563, Compound 889574]
0.1 to 1 µM | 1 to 5 µM | CC(=O)N1CCCC2(CC1)C1=CN=NC1NC1=C2C(=O)CC(C)(C)C1 (configuration not stated) [US20250313563, Compound 889575]
0.1 to 1 µM | 0.1 to 1 µM | CC1(C)CC(=O)C2=C(C1)NC1N=NC=C1C21CCCN(CC(F)(F)F)CC1 (configuration not stated) [US20250313563, Compound 889576]
1 to 5 µM | 1 to 5 µM | CC1(C)CC(=O)C2=C(C1)NC1N=NC=C1C21CCCN(C(=O)c2ccccc2)CC1 (configuration not stated) [US20250313563, Compound 889577]

IC50 [1] | IC50 [2] | Compound
< 0.1 µM | < 0.1 µM | CC1(C)CC(=O)C2=C(C1)NC1N=NC=C1C21CCCN(S(=O)(=O)c2ccccc2)CC1 (configuration not stated) [US20250313563, Compound 889578]
< 0.1 µM | < 0.1 µM | CCC1(c2cccc(S(=O)(=O)CC)c2)C2=CN=NC2NC2=C1C(=O)CC(C)(C)C2 (configuration not stated) [US20250313563, Compound 889579]
< 0.1 µM | 0.1 to 1 µM | CCC1(c2cccc(N(C)C(=O)COC)c2)C2=CN=NC2NC2=C1C(=O)CC(C)(C)C2 (configuration not stated) [US20250313563, Compound 889580]
< 0.1 µM | < 0.1 µM | CC[C@]1(c2cccc(N3CCOCC3)c2)C2=C(CC(C)(C)CC2=O)NC2N=NC(C)=C21 (some centres not stated) [US20250313563, Compound 889581]
0.1 to 1 µM | 1 to 5 µM | CC[C@@]1(c2cccc(N3CCOCC3)c2)C2=C(CC(C)(C)CC2=O)NC2N=NC(C)=C21 (some centres not stated) [US20250313563, Compound 889582]
1 to 5 µM | > 5 µM | CC(=O)N1CC[C@]2(C1)C1=C(N=NC1)NC1=C2C(=O)CC(C)(C)C1 [US20250313563, Compound 889583]
0.1 to 1 µM | 1 to 5 µM | CC(=O)N1CC[C@@]2(C1)C1=C(N=NC1)NC1=C2C(=O)CC(C)(C)C1 [US20250313563, Compound 889584]
0.1 to 1 µM | 1 to 5 µM | CCC1(c2cccc(N(C)c3ccnn3C)c2)C2=CN=NC2NC2=C1C(=O)CC(C)(C)C2 (configuration not stated) [US20250313563, Compound 889604]
0.1 to 1 µM | 0.1 to 1 µM | CCC1(c2cccc(C3CC4CCC(C3)O4)c2)C2=CN=NC2NC2=C1C(=O)CC(C)(C)C2 (configuration not stated) [US20250313563, Compound 889622]
0.1 to 1 µM | 0.1 to 1 µM | CC[C@]1(c2cccc(N3CCC3)c2)C2=CN=NC2NC2=C1C(=O)CC(C)(C)C2 (some centres not stated) [US20250313563, Compound 889631]
> 5 µM | > 5 µM | CC[C@@]1(c2cccc(N3CCC3)c2)C2=CN=NC2NC2=C1C(=O)CC(C)(C)C2 (some centres not stated) [US20250313563, Compound 889632]
< 0.1 µM | < 0.1 µM and 0.1 to 1 µM | CCC1(c2cccc(N3CCCc4ncccc43)c2)C2=CN=NC2NC2=C1C(=O)CC(C)(C)C2 (configuration not stated) [US20250313563, Compound 889639]
< 0.1 µM | 0.1 to 1 µM | CC1(C)CC(=O)C2=C(C1)NC1N=NC=C1[C@]21C[C@H](c2ccncc2)C1 (some centres not stated) [US20250313563, Compound 889664]
< 0.1 µM | < 0.1 µM and 0.1 to 1 µM | CC1(C)CC(=O)C2=C(C1)NC1=C(CN=N1)[C@]21C[C@@H](c2ccncc2)C1 [US20250313563, Compound 889665]
< 0.1 µM | < 0.1 µM | CCC1(c2cccc(N(C(C)=O)C(C)C)c2)C2=CN=NC2NC2=C1C(=O)CC(C)(C)C2 (configuration not stated) [US20250313563, Compound 893305]
< 0.1 µM | < 0.1 µM | CCC1(c2cccc(N(CCOC)C(C)=O)c2)C2=CN=NC2NC2=C1C(=O)CC(C)(C)C2 (configuration not stated) [US20250313563, Compound 893306]
< 0.1 µM | 0.1 to 1 µM | O=C1CC2(CCCCC2)CC2=C1C1(CCOCC1)C1=C(N=NC1)N2 [US20250313563, Compound 893307]
< 0.1 µM | 0.1 to 1 µM | O=C1CC2(CCCC2)CC2=C1C1(CCOCC1)C1=C(N=NC1)N2 [US20250313563, Compound 893308]
0.1 to 1 µM | 1 to 5 µM | O=C1CC(c2ccccc2)CC2=C1C1(CCOCC1)C1=C(N=NC1)N2 (configuration not stated) [US20250313563, Compound 893309]

IC50 [1] | IC50 [2] | Compound
< 0.1 µM | < 0.1 µM and 0.1 to 1 µM | COc1ccccc1S(=O)(=O)N1CCC2(CC1)C1=C(N=NC1)NC1=C2C(=O)CC(C)(C)C1 [US20250313563, Compound 893310]
< 0.1 µM and 0.1 to 1 µM | < 0.1 µM and 1 to 5 µM | CC1(C)CC(=O)C2=C(C1)NC1=C(CN=N1)C21CCN(S(=O)(=O)c2ccc(F)cc2)CC1 [US20250313563, Compound 893311]
< 0.1 µM | < 0.1 µM | CC1(C)CC(=O)C2=C(C1)NC1=C(CN=N1)C21CCC2(CC2)CC1 [US20250313563, Compound 893312]
> 5 µM | > 5 µM | CN1CCCC2(CC1)C1=C(N=NC1)NC1=C2C(=O)CC(C)(C)C1 (configuration not stated) [US20250313563, Compound 893313]
1 to 5 µM | > 5 µM | CC(=O)N1CC2(C1)C1=C(N=NC1)NC1=C2C(=O)CC(C)(C)C1 [US20250313563, Compound 893314]
> 5 µM | > 5 µM | CC1(C)CC(=O)C2=C(C1)NC1=C(CN=N1)C21CN(C(=O)c2ccccc2)C1 [US20250313563, Compound 893315]
< 0.1 µM | 0.1 to 1 µM | C[C@@H]1C[C@H](C)C(=O)C2=C1NC1=C(CN=N1)C21CCOCC1 [US20250313563, Compound 893316]
0.1 to 1 µM | 0.1 to 1 µM | C[C@H]1CCC[C@@]2(C1)C1=C(N=NC1)NC1=C2C(=O)CC(C)(C)C1 [US20250313563, Compound 893318]
0.1 to 1 µM | 0.1 to 1 µM | C[C@H]1CCC[C@]2(C1)C1=C(N=NC1)NC1=C2C(=O)CC(C)(C)C1 [US20250313563, Compound 893319]
< 0.1 µM | < 0.1 µM | C[C@@H]1CCC[C@]2(C1)C1=C(N=NC1)NC1=C2C(=O)CC(C)(C)C1 [US20250313563, Compound 893320]
0.1 to 1 µM | 0.1 to 1 µM | CC[C@]1(c2cc(-c3ccncc3)ccc2C)C2=CN=NC2NC2=C1C(=O)CC(C)(C)C2 (some centres not stated) [US20250313563, Compound 893323]
1 to 5 µM | > 5 µM | CC[C@@]1(c2cc(-c3ccncc3)ccc2F)C2=CN=NC2NC2=C1C(=O)CC(C)(C)C2 (some centres not stated) [US20250313563, Compound 893324]
0.1 to 1 µM | 0.1 to 1 µM | CC1(C)CC(=O)C2=C(C1)NC1=C(CN=N1)C21CCS(=O)(=O)CC1 [US20250313563, Compound 896013]
0.1 to 1 µM | > 5 µM | CCC1(c2cccc(C(F)(F)F)c2)C2=CN=NC2NC2=C1C(=O)N(Cc1ccccc1)CC2 (configuration not stated) [US20250313563, Compound 897749]
< 0.1 µM | < 0.1 µM | C[C@@H]1CC[C@@]2(C1)C1=C(N=NC1)NC1=C2C(=O)CC(C)(C)C1 [US20250313563, Compound 897750]
< 0.1 µM | 0.1 to 1 µM | C[C@H]1CC[C@]2(C1)C1=C(N=NC1)NC1=C2C(=O)CC(C)(C)C1 [US20250313563, Compound 897751]
< 0.1 µM | 0.1 to 1 µM | CC1(C)CC(=O)C2=C(C1)NC1=C(CN=N1)C21Cc2ccccc2C1 [US20250313563, Compound 897752]
1 to 5 µM | 1 to 5 µM | CC1(C)CC(=O)C2=C(C1)NC1=C(CN=N1)[C@@]21CCOC2(CCC2)C1 [US20250313563, Compound 897755]
